Data on 6 compounds can be found in patent US11541028B2, “Peptide pharmaceuticals for treatment of NASH and other disorders” (Mederis Diabetes LLC, priority 2018, dated 2023).

A word on the EC50: it is the midpoint of the concentration-response curve.

Test [1] deals with T1, human GLP-1 receptor (Homo sapiens, UniProt P43220).
T1 construct: host or cells: CHO cells
Put plainly: DiscoveRx LeadHunter cellular assay, cAMP stimulation, GLP-1 receptor in CHO cells. The test is classed as cell-based. Particulars: human GLP-1 receptor in CHO cells (DiscoveRx); read-out: EC50 cAMP GLP-1 R.
Method: (§1) A further series of cellular assays was carried out with standard cellular assays (DiscoveRx, LeadHunter assays) using readout of cAMP stimulation or arrestin activation. Compounds were weighed precisely in an amount of about 1 mg and shipped to DiscoveRx for dilution and assay.

In test [2] the target is T2, human glucagon receptor (Homo sapiens, UniProt P47871).
T2 construct: host or cells: CHO cells
T2 sequence (P47871 26-477): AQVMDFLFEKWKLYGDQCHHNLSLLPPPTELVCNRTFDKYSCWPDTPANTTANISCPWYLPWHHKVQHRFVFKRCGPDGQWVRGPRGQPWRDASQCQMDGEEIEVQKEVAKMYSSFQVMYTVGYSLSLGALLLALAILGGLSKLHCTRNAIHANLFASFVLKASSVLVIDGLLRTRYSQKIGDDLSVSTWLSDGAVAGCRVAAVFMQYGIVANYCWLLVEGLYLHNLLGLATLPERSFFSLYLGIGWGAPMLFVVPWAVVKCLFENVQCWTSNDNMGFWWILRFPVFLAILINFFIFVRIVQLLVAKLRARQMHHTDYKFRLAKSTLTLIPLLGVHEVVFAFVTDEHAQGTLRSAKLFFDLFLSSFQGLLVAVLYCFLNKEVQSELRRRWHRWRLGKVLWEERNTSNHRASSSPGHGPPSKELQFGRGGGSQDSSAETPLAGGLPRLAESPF
Briefly: DiscoveRx LeadHunter cellular assay, cAMP stimulation, glucagon receptor in CHO cells. The test is classed as cell-based.
Method: as §1

T1 sequence (P43220 24-463): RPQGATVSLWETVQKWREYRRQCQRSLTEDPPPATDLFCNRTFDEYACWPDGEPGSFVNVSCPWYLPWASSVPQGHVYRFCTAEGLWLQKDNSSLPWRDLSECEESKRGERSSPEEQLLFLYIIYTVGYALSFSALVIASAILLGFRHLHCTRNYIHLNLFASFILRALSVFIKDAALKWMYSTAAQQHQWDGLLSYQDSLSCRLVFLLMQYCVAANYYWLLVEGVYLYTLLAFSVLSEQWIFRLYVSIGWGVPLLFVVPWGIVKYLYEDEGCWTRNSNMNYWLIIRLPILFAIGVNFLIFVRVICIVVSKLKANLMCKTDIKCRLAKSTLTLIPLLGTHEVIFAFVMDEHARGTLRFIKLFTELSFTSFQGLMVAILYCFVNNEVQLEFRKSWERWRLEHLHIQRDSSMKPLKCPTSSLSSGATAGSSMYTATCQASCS

On to `CCCCCCCCCCCCCCO[C@@H]1O[C@H](CO[C@H]2O[C@H](C(=O)N[C@@H](CCC(=O)N[C@@H](CCC(=O)NCCCC[C@H](NC(=O)[C@@H](NC(=O)[C@H](Cc3ccccc3)NC(=O)[C@H](CCC(=O)O)NC(=O)[C@@H]3CCCCNC(=O)CC[C@H](NC(=O)[C@H](CC(=O)O)NC(=O)[C@H](CC(C)C)NC(=O)[C@H](Cc4ccc(O)cc4)NC(=O)[C@H](CCCCN)NC(=O)[C@H](CO)NC(=O)[C@H](Cc4ccc(O)cc4)NC(=O)[C@H](CC(=O)O)NC(=O)[C@H](CO)NC(=O)[C@@H](NC(=O)[C@H](Cc4ccccc4)NC(=O)[C@@H](NC(=O)CNC(=O)[C@H](CCC(N)=O)NC(=O)C(C)(C)NC(=O)[C@@H](N)Cc4c[nH]cn4)[C@@H](C)O)[C@@H](C)O)C(=O)N[C@@H](CCC(N)=O)C(=O)N[C@@H](C)C(=O)N[C@@H](C)C(=O)N3)[C@@H](C)CC)C(=O)N[C@@H](Cc3c[nH]c4ccccc34)C(=O)N[C@@H](CC(C)C)C(=O)N[C@@H](CC(C)C)C(=O)N[C@@H](CCC(N)=O)C(=O)N[C@H](C(=O)O)[C@@H](C)O)C(=O)O)C(=O)O)[C@H](O)[C@H](O)[C@H]2O)[C@@H](O)[C@H](O)[C@H]1O` [EU-A1622], for which the EC50 in test [1] worked out at 0.774 nM; in test [2] it was 2.08 nM.

`CCCCCCCCCCCCCCO[C@@H]1O[C@H](CO[C@H]2O[C@H](C(=O)N[C@@H](CCC(=O)N[C@@H](CCC(=O)NCCCC[C@H](NC(=O)[C@@H](NC(=O)[C@H](Cc3ccccc3)NC(=O)[C@H](CCC(=O)O)NC(=O)[C@@H]3CCCCNC(=O)CC[C@H](NC(=O)[C@H](CC(=O)O)NC(=O)[C@H](CC(C)C)NC(=O)[C@H](Cc4ccc(O)cc4)NC(=O)[C@H](CCCCN)NC(=O)[C@H](CO)NC(=O)[C@H](Cc4ccc(O)cc4)NC(=O)[C@H](CC(=O)O)NC(=O)[C@H](CO)NC(=O)[C@@H](NC(=O)[C@H](Cc4ccccc4)NC(=O)[C@@H](NC(=O)CNC(=O)[C@H](CCC(N)=O)NC(=O)C(C)(C)NC(=O)[C@@H](N)Cc4c[nH]cn4)[C@@H](C)O)[C@@H](C)O)C(=O)N[C@@H](CCC(N)=O)C(=O)N[C@@H](C)C(=O)N[C@@H](C)C(=O)N3)[C@@H](C)CC)C(=O)N[C@@H](Cc3c[nH]c4ccccc34)C(=O)N[C@@H](CC(C)C)C(=O)N[C@@H](CC(C)C)C(=O)N[C@@H](CCC(N)=O)C(=O)N[C@H](C(N)=O)[C@@H](C)O)C(=O)O)C(=O)O)[C@H](O)[C@H](O)[C@H]2O)[C@@H](O)[C@H](O)[C@H]1O` [EU-A1627]: the EC50 in test [1] is 0.304 nM; in test [2], 0.705 nM.

As to `CCCCCCCCCCCCO[C@@H]1O[C@H](C(=O)NCCCC[C@H](NC(=O)[C@@H](NC(=O)[C@H](Cc2ccccc2)NC(=O)[C@H](CCC(=O)O)NC(=O)[C@@H]2CCCCNC(=O)CC[C@H](NC(=O)[C@H](CC(=O)O)NC(=O)[C@H](CC(C)C)NC(=O)[C@H](Cc3ccc(O)cc3)NC(=O)[C@H](CCCCN)NC(=O)[C@H](CO)NC(=O)[C@H](Cc3ccc(O)cc3)NC(=O)[C@H](CC(=O)O)NC(=O)[C@H](CO)NC(=O)[C@@H](NC(=O)[C@H](Cc3ccccc3)NC(=O)[C@@H](NC(=O)CNC(=O)[C@H](CCC(N)=O)NC(=O)C(C)(C)NC(=O)[C@@H](N)Cc3c[nH]cn3)[C@@H](C)O)[C@@H](C)O)C(=O)N[C@@H](CCC(N)=O)C(=O)N[C@@H](C)C(=O)N[C@@H](C)C(=O)N2)[C@@H](C)CC)C(=O)N[C@@H](Cc2c[nH]c3ccccc23)C(=O)N[C@@H](CC(C)C)C(=O)N[C@@H](CC(C)C)C(=O)N[C@@H](CCC(N)=O)C(=O)N[C@H](C(=O)NCCOCCOCCOCCOCCC(=O)O)[C@@H](C)O)[C@@H](O)[C@H](O)[C@H]1O` [EU-A1633], the EC50 turned out to be 0.008 nM in test [1] and 0.053 nM in test [2].

Regarding `CCCCCCCCCCCCCCO[C@@H]1O[C@H](C(=O)NCCCC[C@H](NC(=O)[C@@H](NC(=O)[C@H](Cc2ccccc2)NC(=O)[C@H](CCC(=O)O)NC(=O)[C@@H]2CCCCNC(=O)CC[C@H](NC(=O)[C@H](CC(=O)O)NC(=O)[C@H](CC(C)C)NC(=O)[C@H](Cc3ccc(O)cc3)NC(=O)[C@H](CCCCN)NC(=O)[C@H](CO)NC(=O)[C@H](Cc3ccc(O)cc3)NC(=O)[C@H](CC(=O)O)NC(=O)[C@H](CO)NC(=O)[C@@H](NC(=O)[C@H](Cc3ccccc3)NC(=O)[C@@H](NC(=O)CNC(=O)[C@H](CCC(N)=O)NC(=O)C(C)(C)NC(=O)[C@@H](N)Cc3c[nH]cn3)[C@@H](C)O)[C@@H](C)O)C(=O)N[C@@H](CCC(N)=O)C(=O)N[C@@H](C)C(=O)N[C@@H](C)C(=O)N2)[C@@H](C)CC)C(=O)N[C@@H](Cc2c[nH]c3ccccc23)C(=O)N[C@@H](CC(C)C)C(=O)N[C@@H](CC(C)C)C(=O)N[C@@H](CCC(N)=O)C(=O)N[C@H](C(=O)NCCOCCOCCOCCOCCC(=O)O)[C@@H](C)O)[C@@H](O)[C@H](O)[C@H]1O` [EU-A1634], the EC50 in test [1] was 0.052 nM; in test [2], 0.493 nM.

On to `CCCCCCCCCCCCCCCCO[C@@H]1O[C@H](C(=O)NCCCC[C@H](NC(=O)[C@@H](NC(=O)[C@H](Cc2ccccc2)NC(=O)[C@H](CCC(=O)O)NC(=O)[C@@H]2CCCCNC(=O)CC[C@H](NC(=O)[C@H](CC(=O)O)NC(=O)[C@H](CC(C)C)NC(=O)[C@H](Cc3ccc(O)cc3)NC(=O)[C@H](CCCCN)NC(=O)[C@H](CO)NC(=O)[C@H](Cc3ccc(O)cc3)NC(=O)[C@H](CC(=O)O)NC(=O)[C@H](CO)NC(=O)[C@@H](NC(=O)[C@H](Cc3ccccc3)NC(=O)[C@@H](NC(=O)CNC(=O)[C@H](CCC(N)=O)NC(=O)C(C)(C)NC(=O)[C@@H](N)Cc3c[nH]cn3)[C@@H](C)O)[C@@H](C)O)C(=O)N[C@@H](CCC(N)=O)C(=O)N[C@@H](C)C(=O)N[C@@H](C)C(=O)N2)[C@@H](C)CC)C(=O)N[C@@H](Cc2c[nH]c3ccccc23)C(=O)N[C@@H](CC(C)C)C(=O)N[C@@H](CC(C)C)C(=O)N[C@@H](CCC(N)=O)C(=O)N[C@H](C(=O)NCCOCCOCCOCCOCCC(=O)O)[C@@H](C)O)[C@@H](O)[C@H](O)[C@H]1O` [EU-A1635], for which the EC50 is 0.071 nM in test [1] and 1.98 nM in test [2].

Take `CCCCCCCCCCCCO[C@@H]1O[C@H](C(=O)NCCCC[C@H](NC(=O)[C@@H](NC(=O)[C@H](Cc2ccccc2)NC(=O)[C@H](CCC(=O)O)NC(=O)[C@@H]2CCCCNC(=O)CC[C@H](NC(=O)[C@H](CC(=O)O)NC(=O)[C@H](CC(C)C)NC(=O)[C@H](Cc3ccc(O)cc3)NC(=O)[C@H](CCCCN)NC(=O)[C@H](CO)NC(=O)[C@H](Cc3ccc(O)cc3)NC(=O)[C@H](CC(=O)O)NC(=O)[C@H](CO)NC(=O)[C@@H](NC(=O)[C@H](Cc3ccccc3)NC(=O)[C@@H](NC(=O)CNC(=O)[C@H](CCC(N)=O)NC(=O)C(C)(C)NC(=O)[C@@H](N)Cc3c[nH]cn3)[C@@H](C)O)[C@@H](C)O)C(=O)N[C@@H](CCC(N)=O)C(=O)N[C@@H](C)C(=O)N[C@@H](C)C(=O)N2)[C@@H](C)CC)C(=O)N[C@@H](Cc2c[nH]c3ccccc23)C(=O)N[C@@H](CC(C)C)C(=O)N[C@@H](CC(C)C)C(=O)N[C@@H](CCC(N)=O)C(=O)N[C@H](C(=O)NCCOCCOCCOCCOCCOCCOCCOCCOCCC(=O)O)[C@@H](C)O)[C@@H](O)[C@H](O)[C@H]1O` [EU-A1645]: the EC50 is 0.029 nM in test [1] and 0.091 nM in test [2].
